{
  "source": "paper PMC4367813",
  "about": "(Current medicinal chemistry, 2012)",
  "key": {"[1]": {"molecular_target": "T1, carboxypeptidase A (CPA) (Bos taurus, UniProt P00730)", "T1 sequence (P00730 111-419)": "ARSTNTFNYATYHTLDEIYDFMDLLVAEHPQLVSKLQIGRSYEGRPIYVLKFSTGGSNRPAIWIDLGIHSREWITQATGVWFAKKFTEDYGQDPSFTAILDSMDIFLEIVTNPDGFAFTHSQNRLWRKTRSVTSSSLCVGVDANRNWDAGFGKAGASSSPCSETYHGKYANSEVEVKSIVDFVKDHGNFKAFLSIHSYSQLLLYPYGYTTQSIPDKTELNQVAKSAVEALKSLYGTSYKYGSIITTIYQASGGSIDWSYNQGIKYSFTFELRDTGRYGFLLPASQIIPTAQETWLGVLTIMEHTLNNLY", "test": "Specificity: carboxypeptidase A inhibition", "type": "biochemical"}, "[2]": {"molecular_target": "T2, carboxypeptidase M (CPM) (Homo sapiens, UniProt P14384)", "T2 sequence (P14384 18-443)": "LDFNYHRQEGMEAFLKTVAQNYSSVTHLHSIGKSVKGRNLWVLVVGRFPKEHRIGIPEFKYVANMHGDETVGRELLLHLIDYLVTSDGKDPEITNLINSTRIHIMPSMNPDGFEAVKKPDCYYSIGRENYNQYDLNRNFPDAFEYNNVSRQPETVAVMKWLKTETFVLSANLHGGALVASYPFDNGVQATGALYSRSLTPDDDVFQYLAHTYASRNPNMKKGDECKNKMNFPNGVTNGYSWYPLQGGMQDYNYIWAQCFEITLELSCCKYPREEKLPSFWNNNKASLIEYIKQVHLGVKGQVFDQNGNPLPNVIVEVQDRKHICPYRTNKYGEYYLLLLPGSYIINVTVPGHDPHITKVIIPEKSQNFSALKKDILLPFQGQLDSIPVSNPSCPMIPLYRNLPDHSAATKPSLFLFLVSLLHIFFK", "test": "Specificity: carboxypeptidase M inhibition", "type": "biochemical", "settings": "Table 5, NE = no effect"}, "[3]": {"test_system": "PRCP", "settings": "read-out: PRCP IC50, cited from earlier work"}, "[4]": {"molecular_target": "T3, recombinant PRCP (rPRCP) (Homo sapiens, UniProt P42785)", "T3 sequence (P42785 46-496)": "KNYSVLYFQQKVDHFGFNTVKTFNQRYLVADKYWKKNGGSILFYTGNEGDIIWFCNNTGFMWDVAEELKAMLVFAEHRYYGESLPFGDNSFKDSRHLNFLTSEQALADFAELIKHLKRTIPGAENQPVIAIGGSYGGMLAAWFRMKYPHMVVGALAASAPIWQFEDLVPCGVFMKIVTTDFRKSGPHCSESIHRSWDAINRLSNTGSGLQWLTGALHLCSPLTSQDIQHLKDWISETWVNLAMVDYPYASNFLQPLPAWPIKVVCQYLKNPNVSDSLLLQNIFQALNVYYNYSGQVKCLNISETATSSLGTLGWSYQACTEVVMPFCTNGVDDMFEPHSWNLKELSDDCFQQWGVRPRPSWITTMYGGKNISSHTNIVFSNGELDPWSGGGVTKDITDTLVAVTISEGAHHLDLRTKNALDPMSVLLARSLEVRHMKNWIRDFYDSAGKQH", "test": "rPRCP activity, cleavage of chromogenic substrate APpNA", "type": "biochemical", "settings": "1 mM APpNA, 60 min; NE = no effect"}, "[5]": {"molecular_target": "PRCP-dependent prekallikrein (PK) activation on HPAEC", "test": "PRCP-dependent PK activation on HPAEC", "type": "cell-based, human", "settings": "20 nM HK, 20 nM PK; NE = no effect"}, "[6]": {"molecular_target": "T4, carboxypeptidase B (CPB) (Sus scrofa, UniProt P09955)", "T4 sequence (P09955 111-416)": "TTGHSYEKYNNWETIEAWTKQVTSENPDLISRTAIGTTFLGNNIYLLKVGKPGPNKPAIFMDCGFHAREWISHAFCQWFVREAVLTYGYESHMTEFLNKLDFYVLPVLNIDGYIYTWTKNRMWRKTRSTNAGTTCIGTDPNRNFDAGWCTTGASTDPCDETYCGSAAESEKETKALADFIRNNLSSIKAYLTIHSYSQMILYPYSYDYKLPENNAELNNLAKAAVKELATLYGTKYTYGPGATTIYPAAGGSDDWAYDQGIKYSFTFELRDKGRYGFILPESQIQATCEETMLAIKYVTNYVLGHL", "test": "Specificity: carboxypeptidase B inhibition", "type": "biochemical", "settings": "Table 5, NE = no effect"}, "[7]": {"molecular_target": "T5, carboxypeptidase N (hCPN, partially purified from plasma) (Homo sapiens, UniProt P15169)", "T5 sequence (P15169 21-458)": "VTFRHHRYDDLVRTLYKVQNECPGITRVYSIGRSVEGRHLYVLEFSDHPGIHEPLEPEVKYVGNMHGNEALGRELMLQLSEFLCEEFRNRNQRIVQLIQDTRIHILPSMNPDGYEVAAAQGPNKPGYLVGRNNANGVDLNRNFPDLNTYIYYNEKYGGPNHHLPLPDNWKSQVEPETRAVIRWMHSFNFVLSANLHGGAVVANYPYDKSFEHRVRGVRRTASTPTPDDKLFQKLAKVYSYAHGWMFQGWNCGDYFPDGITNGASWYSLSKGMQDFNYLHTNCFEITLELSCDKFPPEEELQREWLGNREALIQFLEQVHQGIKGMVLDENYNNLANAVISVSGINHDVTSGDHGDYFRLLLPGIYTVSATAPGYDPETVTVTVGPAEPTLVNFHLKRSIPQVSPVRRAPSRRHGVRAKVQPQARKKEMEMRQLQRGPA", "T5 sequence (P22792 22-545 partner)": "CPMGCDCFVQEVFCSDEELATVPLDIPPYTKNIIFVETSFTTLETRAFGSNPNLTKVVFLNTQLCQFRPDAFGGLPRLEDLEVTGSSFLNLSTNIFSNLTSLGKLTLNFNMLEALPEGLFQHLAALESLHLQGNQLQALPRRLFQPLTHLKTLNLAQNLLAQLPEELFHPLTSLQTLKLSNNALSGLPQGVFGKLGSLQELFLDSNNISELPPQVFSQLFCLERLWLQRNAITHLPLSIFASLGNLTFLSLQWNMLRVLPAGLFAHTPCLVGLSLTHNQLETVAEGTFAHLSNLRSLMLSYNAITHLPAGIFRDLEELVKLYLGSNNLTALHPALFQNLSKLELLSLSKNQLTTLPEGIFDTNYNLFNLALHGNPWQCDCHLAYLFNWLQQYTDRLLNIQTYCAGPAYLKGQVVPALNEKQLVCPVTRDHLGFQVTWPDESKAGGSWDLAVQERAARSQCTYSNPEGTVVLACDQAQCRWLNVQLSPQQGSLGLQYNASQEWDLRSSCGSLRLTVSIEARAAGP", "test": "Specificity: carboxypeptidase N inhibition", "type": "biochemical", "settings": "Table 5, NE = no effect"}, "[8]": {"test_system": "NO formation on HPAEC", "test": "PRCP-induced nitric oxide formation on HPAEC", "type": "cell-based, human", "settings": "HPAEC with HK/PK complexes, 100 µM"}, "[9]": {"test_system": "PGI2 (6-keto prostaglandin F1α) release from HPAEC", "test": "PRCP-induced 6-keto prostaglandin F1α release from HPAEC", "type": "cell-based, human", "settings": "HPAEC with HK/PK complexes, 100 µM"}, "[10]": {"test_system": "food intake in mice", "settings": "fasted mice"}, "[11]": {"test": "Metabolic panel"}, "[12]": {"settings": "mice, Compound 3 (400 µM), within 8 hours of administration"}},
  "note": "Like-named read-outs stand apart in the source and are kept apart here. Residues, ends and D or L forms follow the SMILES beside them. *: point of attachment. Cbz = O=C(OCc1ccccc1)*",
  "data": [
    {"smiles": "c1cnc2c(c1)ccc1cccnc12", "note": "[1,10-Phenanthroline, 1,10-phenanthroline, reference compound]", "values": [
      {"measurement": "Ki", "setting": "[1]", "value": 486, "unit": "µM"},
      {"measurement": "Ki", "setting": "[2]; Ki CPM", "value": 394, "unit": "µM"}
    ]},
    {"smiles": "O=C[C@@H]1CCCN1C(=O)[C@@H]1CCCN1C(=O)OCc1ccccc1", "note": "(Cbz-Pro-Pro-aldehyde)", "values": [
      {"measurement": "IC50", "setting": "[3]", "value": "> 1000", "unit": "µM"}
    ]},
    {"smiles": "O=C[C@@H]1CCCN1C(=O)[C@@H]1CCCN1C(=O)OCc1ccccc1", "note": "[z-Pro-Prolinal, 1-[1-(benzyloxycarbonyl)-L-prolyl] prolinal] (Cbz-Pro-Pro-aldehyde)", "values": [
      {"measurement": "rPRCP Ki", "setting": "[4]", "value": "little effect"},
      {"measurement": "PRCP-Dependent PK Activation on HPAEC Ki", "setting": "[5]", "value": "little effect"},
      {"measurement": "IC50", "setting": "[3]; listed as Z-Pro-Pro-OH", "value": "> 2000", "unit": "µM"}
    ]},
    {"smiles": "CCCCCCCCCCCCNC(=O)[C@@H]1CCCN1C(=O)[C@@H]1CCCN1", "note": "[Compound 3, (S)-N-dodecyl-1-((S)-pyrrolidine-2-carbonyl) pyrrolidine-2-carboxamide]", "values": [
      {"measurement": "Ki CPA", "setting": "[1]; Table 5, NE = no effect", "value": "not inhibited"},
      {"measurement": "Ki", "setting": "[1]; read-out: Ki CPA, Table 5, NE = no effect", "value": "> 1000", "unit": "µM"},
      {"measurement": "Ki CPB", "setting": "[6]", "value": "not inhibited"},
      {"measurement": "Ki", "setting": "[6]; read-out: Ki CPB", "value": "> 1000", "unit": "µM"},
      {"measurement": "Ki CPN", "setting": "[7]", "value": "did not inhibit"},
      {"measurement": "Ki", "setting": "[7]; read-out: Ki CPN", "value": "> 1000", "unit": "µM"},
      {"measurement": "Ki CPM", "setting": "[2]", "value": "did not inhibit"},
      {"measurement": "Ki", "setting": "[2]; read-out: Ki CPM", "value": "> 1000", "unit": "µM"},
      {"measurement": "reduction of NO production", "setting": "[8]", "value": 80, "unit": "%"},
      {"measurement": "reduction of PGI2 production", "setting": "[9]", "value": 80, "unit": "%"},
      {"measurement": "food intake", "setting": "[10]; 1 mg/kg ip, 1-24 h", "value": "lower food intake, although the reduction was not significant at 2, 4, 8, or 24 h"},
      {"measurement": "food intake", "setting": "[10]; 10 mg/kg ip, all time intervals 1-24 h, P < 0.05 vs saline", "value": "Significant declines in food intake"},
      {"measurement": "time at which attenuation of food intake started", "setting": "[10]; ip", "value": "≤ 1", "unit": "h"},
      {"measurement": "ALB", "setting": "[11]; [12]", "value": 3.9},
      {"measurement": "ALP", "setting": "[11]; [12]", "value": 93},
      {"measurement": "ALT", "setting": "[11]; [12]", "value": 33},
      {"measurement": "AMY", "setting": "[11]; [12]", "value": 1041},
      {"measurement": "BUN", "setting": "[11]; [12]", "value": 19},
      {"measurement": "CRE", "setting": "[11]; [12]", "value": 0.3},
      {"measurement": "Ca^2+", "setting": "[11]; [12]", "value": 9.9},
      {"measurement": "GLOB", "setting": "[11]; [12]", "value": 1.5},
      {"measurement": "GLU", "setting": "[11]; [12]", "value": 165},
      {"measurement": "K+", "setting": "[11]; [12]", "value": 5.4},
      {"measurement": "Na+", "setting": "[11]; [12]", "value": 151},
      {"measurement": "PHOS", "setting": "[11]; [12]", "value": 8.0},
      {"measurement": "TBIL", "setting": "[11]; [12]", "value": 0.4},
      {"measurement": "TP", "setting": "[11]; [12]", "value": 5.3},
      {"measurement": "changes in electrolyte levels, or markers of kidney and liver function", "setting": "[11]; mice, within 8 hours of administration", "value": "did not cause significant changes"},
      {"measurement": "decrease in blood glucose levels", "setting": "[11]; treated mice, n=3, P = 0.26", "value": 15, "unit": "%"}
    ]}
  ]
}
